From patent US20080221150A1, “Prevention of Neurodegeneration by Macrolide Antibiotics” (priority 2005, published 2008)
Entries after “also recorded” stand apart in the source; their conditions may differ.

Columns and labels:
[1] = tested on: cerebellar granule neurons (CGNs); assay: Cell viability via Calcein AM fluorogenic conversion assay; conditions: for effect on staurosporine-induced decrease in viability: 1 nM bafilomycin A1 + 0.1 μM staurosporine; for chloroquine-induced decrease in viability / cell death: 1 nM macrolide + 20 μM chloroquine
Experimental: (§1) Cerebellar granule neurons (CGNs) were isolated from postnatal day 7 mice as previously described^40. CGNs were plated in poly-L-lysine coated plates at a density of 1250 cells per mm^2. 48 well plates were used for viability and caspase activity assays; 100 mm dishes were used for western blot analysis; and 4 well […] chamber slides (Agene) were used for analysis of vacuolar acidification.
(§2) CGNs were treated in vitro on day 4. […] Separate cultures of CGNs were also treated for 24 h with staurosporine (0.1 μM), in the presence or absence of BafA1 (1-10 nM final).
(§3) Cell viability (via Calcein AM fluorogenic conversion assay; Molecular Probes, Eugene, Oreg.) and caspase-3-like activity (via fluorogenic DEVD cleavage assay) were performed as previously described 40 and were expressed relative to untreated controls.

[2] = tested on: caspase-3-like activity; assay: Caspase-3-like activity via fluorogenic DEVD cleavage assay in CGNs; assay type: cell-based, mice
Experimental: as §1, §2, §3

[3] = tested on: cleaved caspase-3; assay: Western blot of cleaved caspase-3 in CGN lysates; assay type: cell-based, mice
Experimental: as §1, §2
Cells were detached from their substrate by incubation for 5 min at 37° C. with Accutase (Innovative Cell Technologies, San Diego, Calif.). Conditioned media and cells were centrifuged (700×g, 5 min, 4° C.). The supernatant was aspirated and re-suspended with 1 ml ice-cold PBS, then centrifuged again (700×g, 5 min, 4° C.). The resultant pellet was re-suspended in lysis buffer containing 25 mM HEPES, 5 mM EDTA, 5 mM MgCl2, 1% SDS, 1% Triton X-100, 1 mM PMSF, 1% protease inhibitor cocktail and 1% phosphatase inhibitor cocktail (Sigma). Cell lysates were sonicated to shear DNA and then centrifuged (10,000 rpm, 10 min, 4° C.), and the resultant supernatant (cleared whole cell lysates) was transferred to a fresh tube. Protein levels were determined subsequently via BCA assay (Pierce). Equal amounts of protein were resolved via SDS-PAGE and transferred to PVDF. After transfer blots were cut in half at approximately 37 kDa. […] Blots were blocked for 1 h, RT (5% milk), followed by overnight incubation with primary antibody. Blots were washed with 1×TBS containing 0.1% Tween 20, then incubated with secondary antibody (goat anti-rabbit IgG, Biorad) for 1 h, RT and subsequently washed. Signal was detected using Supersignal chemiluminescence (Pierce). […] Blots were scanned for densitometric analysis using Biorad Quantity One® software.

[4] = tested on: LC3; assay: Western blot of LC3 processing (LC3-I, LC3-II) in CGN lysates; assay type: cell-based, mice
Experimental: as §1, §2
Cells were detached from their substrate by incubation for 5 min at 37° C. with Accutase (Innovative Cell Technologies, San Diego, Calif.). Conditioned media and cells were centrifuged (700×g, 5 min, 4° C.). The supernatant was aspirated and re-suspended with 1 ml ice-cold PBS, then centrifuged again (700×g, 5 min, 4° C.). The resultant pellet was re-suspended in lysis buffer containing 25 mM HEPES, 5 mM EDTA, 5 mM MgCl2, 1% SDS, 1% Triton X-100, 1 mM PMSF, 1% protease inhibitor cocktail and 1% phosphatase inhibitor cocktail (Sigma). Cell lysates were sonicated to shear DNA and then centrifuged (10,000 rpm, 10 min, 4° C.), and the resultant supernatant (cleared whole cell lysates) was transferred to a fresh tube. Protein levels were determined subsequently via BCA assay (Pierce). Equal amounts of protein were resolved via SDS-PAGE and transferred to PVDF. After transfer blots were cut in half at approximately 37 kDa. […] Blots were blocked for 1 h, RT (5% milk), followed by overnight incubation with primary antibody. Blots were washed with 1×TBS containing 0.1% Tween 20, then incubated with secondary antibody (goat anti-rabbit IgG, Biorad) for 1 h, RT and subsequently washed. Signal was detected using Supersignal chemiluminescence (Pierce). After detection of cleaved caspase-3, the bottom blot was stripped using Restore Western Blot stripping buffer (Pierce) then probed with rabbit anti-LC3 (provided by Uchiyama laboratory), using the same western blot protocol as described above. Blots were scanned for densitometric analysis using Biorad Quantity One® software.

[5] = tested on: p18 Bax; assay: Western blot of p18 Bax in CGNs; assay type: cell-based, mice
Experimental: as §1
CGNs were treated in vitro on day 4. […]
Cells were detached from their substrate by incubation for 5 min at 37° C. with Accutase (Innovative Cell Technologies, San Diego, Calif.). Conditioned media and cells were centrifuged (700×g, 5 min, 4° C.). The supernatant was aspirated and re-suspended with 1 ml ice-cold PBS, then centrifuged again (700×g, 5 min, 4° C.). The resultant pellet was re-suspended in lysis buffer containing 25 mM HEPES, 5 mM EDTA, 5 mM MgCl2, 1% SDS, 1% Triton X-100, 1 mM PMSF, 1% protease inhibitor cocktail and 1% phosphatase inhibitor cocktail (Sigma). Cell lysates were sonicated to shear DNA and then centrifuged (10,000 rpm, 10 min, 4° C.), and the resultant supernatant (cleared whole cell lysates) was transferred to a fresh tube. Protein levels were determined subsequently via BCA assay (Pierce). […] Signal was detected using Supersignal chemiluminescence (Pierce). […] Blots were scanned for densitometric analysis using Biorad Quantity One® software.

[6] = tested on: acidic vesicles; assay: Labeling of acidic vesicles in CGNs with Lysotracker Red (LTR); assay type: cell-based, mice
Experimental: as §1, §2
(§4) Conditioned media was removed from CGNs grown in 4 well, permanox chamber slides. LTR (0.05 μM; Molecular Probes, Eugene, Oreg.) and Calcein AM (2.5 μg/ml; Molecular Probes, Eugene, Oreg.) were prepared in Locke's Buffer and added to each well for 30 min, 37° C. After this incubation the cells were washed with Locke's Buffer and cover-slipped. Images were captured using a Carl Zeiss Axioskop microscope equipped with epifluorescence.

[7] = tested on: cerebellar granule neurons (CGNs); assay: Viable CGNs by viability marker calcein AM during LTR labeling; assay type: cell-based, mice; conditions: 24 h
Experimental: as §1, §2, §4

[8] = tested on: vacuolar ATPase; conditions: cited from earlier work
[9] = in vitro; conditions: mouse
Experimental: as §1, §2, §3

[10] = tested on: Bid; assay: Cleavage of Bid in CGNs; assay type: cell-based, mice; conditions: chloroquine; data not shown
[11] = + chloroquine 20 μM for 24 hours, wild-type CGNs
[12] = 10 nM bafilomycin A1, 24 hours, Bax deficiency
[13] = all concentrations of bafilomycin A1 tested + 20 μM chloroquine, 24 hours
[14] = bafilomycin A1 by itself, 24 hours
[15] = co-addition with 20 μM chloroquine, 24 hours
[16] = 10 nM bafilomycin A1 by itself, 24 hours
[17] = bafilomycin A1 0.3-10 nM + 20 μM chloroquine, 24 hours

COC(=O)CC(NC(=O)OC(C)(C)C)C(=O)CF (stereo not shown) [BOC-aspartyl(Ome)-fluoromethyl ketone, reference compound]
effect on chloroquine-induced death [1, 11]: did not attenuate
effect on chloroquine-induced increase in caspase-3-like activity [2, 11]: significantly attenuate

CO/C1=C\C(C)=C\[C@@H](C)[C@@H](O)[C@@H](C)C/C(C)=C/C=C/[C@H](OC)[C@@H]([C@@H](C)[C@@H](O)[C@H](C)[C@@]2(O)C[C@@H](O)[C@H](C)[C@@H](C(C)C)O2)OC1=O [bafilomycin A1]
effect on staurosporine-induced decrease in viability ([1]; 24 hours): not altered
effect on staurosporine-induced decrease in viability ([1]; 24 hours, listed as Bafilomycin A1): did not prevent the decrease in viability
viability ([1]; 1 nM bafilomycin A1 + 20 μM chloroquine, 24 hours): 88%
viability ([1]; 10 nM bafilomycin A1 + 0.1 μM staurosporine, 24 hours): 20%
reduction in viability in Bax-deficient CGNs [1, 12]: prevented
chloroquine-induced decrease in viability ([1]; 10-100 nM bafilomycin A1 + 20 μM chloroquine, 24 hours): still attenuated; also recorded: inhibited chloroquine-induced death
chloroquine-induced decrease in viability [1, 13]: significantly attenuated
concentrations that did not decrease viability [1, 14]: ≤ 1 nM
concentrations that significantly decreased viability [1, 14]: ≥ 10 nM
concentration of maximal attenuation of chloroquine-induced decrease in viability [1, 15]: 1 nM
reduction of chloroquine-induced caspase-3-like activity ([2]; 1 nM bafilomycin A1 + 20 μM chloroquine, 24 hours, maximal): 3 fold
increase in caspase-3-like activity in Bax-deficient CGNs [2, 12]: prevented
concentrations that did not induce caspase-3-like activity [2, 14]: ≤ 1 nM
concentrations that increased caspase-3-like activity [2, 14]: ≥ 10 nM
concentrations that reduced chloroquine-induced increase in caspase-3-like activity [2, 15]: 0.3 to 1 nM
concentration at which increase in cleaved caspase-3 was apparent [3, 14]: 10 nM
concentrations that attenuated chloroquine-induced increase in cleaved caspase-3 ([3]; co-treatment with 20 μM chloroquine, 24 hours): ≤ 1 nM
levels of LC3-II [4, 16]: dramatic increase
ratio of LC3-II/LC3-I [4, 16]: increase
ratio of LC3-II to LC3-I [4, 13]: reduction
chloroquine-induced levels of LC3-II [4, 17]: did not attenuate
levels of LC3-I [4, 17]: appeared to increase
levels of LC3-I ([4]; bafilomycin A1 by itself, any concentration, 24 hours): did not change
increase in p18 Bax levels ([5]; 1 nM bafilomycin A1 with chloroquine 20 μM, 24 hours): inhibits the increase in p18 Bax levels; also recorded: dramatically attenuated
LTR staining ([6]; 1 nM bafilomycin A1 + 20 μM chloroquine, 24 h, versus either alone): increase in LTR staining intensity
LTR staining / vacuolar acidification ([6]; 1 nM bafilomycin A1 by itself, 24 h): did not alter the staining pattern of LTR; also recorded: did not alter vacuolar acidification
LTR staining / vacuolar acidification ([6]; 10 nM bafilomycin A1, presence or absence of chloroquine, 24 h): prevented any detection of vacuolar acidification by LTR; also recorded: completely prevents LTR staining
numbers of viable neurons ([7]; 1 nM bafilomycin A1 + 20 μM chloroquine): increased numbers of viable neurons
viability by calcein AM ([7]; 1 nM bafilomycin A1 by itself): nor did it reduce viability
numbers of viable CGNs ([7]; 10 nM bafilomycin A1, presence or absence of chloroquine): decreased numbers of viable CGNs
concentrations reported to inhibit vacuolar ATPase [8]: greater than 1 nM

CO/C1=C\C(C)=C\[C@@H](C)[C@@H](O)[C@@H](C)C/C(C)=C/C=C/[C@H](OC)[C@@H]([C@@H](C)[C@@H](O)[C@H](C)[C@@]2(O)C[C@@H](OC(=O)/C=C/C(=O)NC3=C(O)CCC3=O)[C@H](C)[C@@H](C(C)C)O2)OC1=O [bafilomycin B1]
chloroquine-induced decrease in viability / cell death ([1]; data not shown): inhibited chloroquine induced cell death
chloroquine-induced decrease in viability / cell death ([1]; data not shown, listed as Bafilomycin B1): attenuated

CCN(CC)CCCC(C)Nc1ccnc2cc(Cl)ccc12 (stereo not shown) [chloroquine, reference compound]
viability at 8 h, 20 μM [9]: 93%
viability at 24 h, 20 μM [9]: 24%
viability at 24 h, 40 μM [9]: 8%
cleaved caspase-3 temporal pattern ([3]; 20 μM chloroquine, 4-48 hours): most robust at 16 hours
levels of LC3-I ([4]; 20 μM chloroquine, 24-48 hours, versus control): appeared lower
chloroquine-induced increase in LC3-II in Bax-deficient CGNs ([4]; 20 μM chloroquine, 24 hours, Bax deficiency): did not prevent
time to elevation of LC3-II ([4]; 20 μM chloroquine, remained high through 48 hours): ≤ 4 h
amount of p18 Bax ([5]; chloroquine 20 μM for 24 hours): increased
LTR staining ([6]; 20 μM chloroquine, 24 hours, surviving CGNs versus control): greater intensity of LTR staining
cleavage of Bid [10]: not increased

C/C=C/[C@H]1O[C@@](O)([C@@H](C)[C@H](O)[C@H](C)[C@H]2OC(=O)/C(OC)=C/C(C)=C/[C@@H](C)[C@@H](O)[C@@H](CC)[C@@H](O)[C@H](C)C/C(C)=C/C=C/[C@@H]2OC)C[C@@H](O)[C@@H]1C [concanamycin]
chloroquine-induced decrease in viability / cell death ([1]; data not shown): inhibited chloroquine induced cell death

C[C@@H]1C[C@@H]([C@H](O)CC2CC(=O)NC(=O)C2)C(=O)[C@@H](C)C1 [cycloheximide, reference compound]
effect on magnitude of cell death induced by chloroquine ([1]; cycloheximide 0.1-1 mg/ml with chloroquine, data not shown): did not alter

CN[C@@H]1C[C@H]2O[C@@](C)([C@@H]1OC)n1c3ccccc3c3c4c(c5c6ccccc6n2c5c31)C(=O)NC4 [staurosporine, reference compound]
viability at 24 h, 0.1 μM [9]: 44%
caspase-3-like activity ([2]; 0.1 μM staurosporine, data not shown): significantly increases
